What was measured:
[1] = tested on: BxPC-3 cell line; experiment: Growth inhibition (GI50) assay, SRB, BxPC-3; type: cell-based; details: Homo sapiens, 120 h, BxPC-3 (KRas wild-type, TP53 mutant, SMAD4 homozygous deletion), 5 days
Description: (§1) BxPC-3 and PANC-1 cell lines were obtained from American Type Culture Collection (ATCC, Manassas, Va.) and maintained according to the supplier's instructions. Short tandem repeat (STR) profiling was used to verify authenticity of the cell lines. Sixteen STR loci were simultaneously amplified in a multiplex PCR reaction (The Hospital for Sick Children, Toronto, Canada), and the ATCC database was used for comparison, where possible. Cell lines were routinely tested for mycoplasma and used at low passage numbers (<15).
(§2) Cells were seeded at 3000 per 80 μL, into 96-well plates according to cell growth rate 24 hours before compound overlay and cultured at 37° C. and 5% CO2. Compounds were prepared as 10 mM stocks in 100% DMSO. […] After 5 days, cell growth in each well was assessed by the sulforhodamine B (SRB) assay measuring total protein content. […] The SRB was solubilized with 100 μL of 10 mM Tris pH 10.5 per well, and absorbance was read at 570 nm using a SpectraPlus microplate reader (Molecular Devices Corporation). SRB absorbance values were adjusted by subtracting the average of the baseline readings from untreated cells assessed one day after cell seeding. The percentage (%) of relative inhibition of cell growth was calculated by comparing to DMSO-treated cells. GI50s were calculated using GraphPad PRISM software (GraphPad Software Inc., San Diego, Calif.).

[2] = tested on: PANC-1 cell line; experiment: Growth inhibition (GI50) assay, SRB, PANC-1; type: cell-based; details: Homo sapiens, 120 h, PANC-1 (KRas mutant, TP53 mutant, CDKN2A homozygous deletion, SMAD4 wild-type), 5 days
Description: as §1, §2

[3] = tested on: patient-derived pancreatic xenograft models; experiment: Orthotopic patient-derived pancreatic xenograft models, mono-therapy; type: in vivo, NOD/SCID mice
Description: 6 orthotopically implanted patient-derived pancreatic xenograft models with varying growth rates and levels of tumor hypoxia were used in order to investigate the efficiency of the Compound II as a mono-therapy or in combination with Gemcitabine.
The patient-derived pancreatic xenograft models were established by attaching a piece of the patient tumor on the pancreas of 4-5 week old Non-obese diabetic (NOD)/Severe combined immunodeficiency (SCID) mice. The xenograft models closely resemble the morphology of the patient specimen and represent the range of tumor morphologies described in pancreatic cancer patients.
Tumor volume was evaluated by palpation and animals were randomized into treatment groups. Animals were treated with Compound II using a daily dose of 7.5 mg/kg by oral gavage for 21 days for experiments evaluating activity as a mono-therapy, or with 13.5 mg/kg according to a 2-day-on-5-days-off schedule in combination bi-weekly 100 mg/kg Gemcitabine for 21 days.
Tumor weight after completion of the treatment and overall survival were evaluated. Immunofluorescence (IF) staining of xenograft sections was used to evaluate tumor hypoxia and proliferation. The impact of Compound II treatment on survival was examined in 6 animals per group. Mice were followed until the animals either died or had to be euthanized due to oversized tumors.

[4] = tested on: OCIP51 xenograft tumor initiating cells; experiment: Limiting dilution assay for tumor initiating cells (TIC); type: in vivo, NOD/SCID mice; details: 52 mg/kg, tumors harvested 12 h after treatment, preliminary results
Protocol: FIG. 2(C) is a schematic overview of the limiting dilution assay. Briefly, xenograft tumors were grown to a diameter of approximately 1 cm and treated with 52 mg/kg Compound II and tumors harvested 12 h after treatment. Excised tumors were mechanically minced and a single cell suspension prepared using a DNAse, Collagenase and Protease cocktail. A sample of the single cell suspension was stained for mouse CD31-FITC and H2K-FITC to establish the mouse cell content. Cells were counted using a haemocytometer and the human content was calculated. 3-6 dilutions of human cells per sample were injected into the flank of NOD/SCID mice. 3 mice were injected into both flanks per dilution. Tumor take rate was observed over the course of 6 month. Tumor initiating frequency was calculated from using the L-Calc software. […] The remaining 3 xenograft models have been injected for the dilutions.

[5] = tested on: OCIP110 tumors; experiment: OCIP110 orthotopic xenograft, Compound II alone or with Cisplatin; type: in vivo, SCID mice; details: Compound II 10 mg/kg 2-on/5-off schedule, 21 days
Protocol: OCIP110 tumors were implanted orthotopically onto the pancreas of 4-5 week old SCID mice. Tumor volume was evaluated by palpation and animals were randomized into treatment groups. Animals were treated with either Compound II on a 2-on/5-off schedule with 10 mg/kg, a weekly dose of 4 mg/kg Cisplatin or the combination treatment for 21 days. Tumor weight was evaluated when tumors were excised at the end of the treatment.

COc1ccc2c(c1)[C@]1(C[C@H]1c1ccc3c(/C=C/c4ccc(CN5CCOCC5)cc4)n[nH]c3c1)C(=O)N2C [Compound II]
GI50 [1]: 15 nM | GI50 [2]: 25 nM | Tumor weight after completion of the treatment ([3]; 7.5 mg/kg daily by oral gavage for 21 days, mono-therapy, 6 xenograft models): significantly reduced tumor weight in 4 of the 6 tested patient-derived pancreatic xenograft models | medium survival ([3]; OCIP51 (highly hypoxic, fast growing) model, 7.5 mg/kg daily oral, 21 days, vehicle 54 days): 103 days | overall survival ([3]; mono-therapy for 21 days, responsive models): increase in overall survival in a number of responsive models | response to treatment versus tumor hypoxia ([3]; mono-therapy, highly hypoxic versus medium or low hypoxic models, preliminary results): strongest response to Compound II as a mono-therapy was observed in highly hypoxic models | Number of tumor initiating cells (TICs) [4]: reduced the number of TICs in OCIP51 | Tumor weight at the end of the treatment [5]: reduced tumor weight

From patent US9642856B2, “Treatment for pancreatic cancer” (University Health Network, priority 2013, dated 2017)
